Laboratory results reported in publication PMC4188773 (Cell calcium, 2014).
In brackets after ≈: the same amount, converted by molar mass. Several values for one entry are separate records, joined by “and”; a condition that tells them apart may be missing. Equal entries are not always repeated. Entries after “also recorded” stand apart in the source; their conditions may differ. Where two headings read alike, the source gives them in different places.

What was measured:
[1] = molecular target: T1, mouse eugenol OR (mOR-EG) (Mus musculus, UniProt Q920P2); experiment: dual read-out assay, mOR-EG/PLC and mOR-EG/AC responses compared; assay type: cell-based; conditions: for functional bias between PLC and AC pathways (in words): pair-wise comparison of EC50 values; for AC-/PLC- mediated Ca2+ response (result in words): both read-outs, up to 1-5 mM; for potency in mOR-EG/PLC signaling in comparison to mOR-EG/AC signaling: ratio of EC50 values
T1 sequence (Q920P2 1-313): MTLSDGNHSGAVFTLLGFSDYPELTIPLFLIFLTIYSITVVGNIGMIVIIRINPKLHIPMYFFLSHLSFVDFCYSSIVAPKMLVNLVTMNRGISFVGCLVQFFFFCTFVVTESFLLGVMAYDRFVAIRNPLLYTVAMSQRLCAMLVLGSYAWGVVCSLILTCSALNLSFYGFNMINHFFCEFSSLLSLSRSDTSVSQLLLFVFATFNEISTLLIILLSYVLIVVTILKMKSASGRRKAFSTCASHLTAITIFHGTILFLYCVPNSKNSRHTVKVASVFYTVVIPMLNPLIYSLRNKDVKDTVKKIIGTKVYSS

[2] = pH7; source not stated; cited from earlier work
[3] = molecular target: T1, mouse eugenol OR (mOR-EG); experiment: mOR-EG/AC Ca2+ imaging: mOR-EG + Gαolf + CNGC-camp in HEK293T cells; assay type: cell-based; conditions: for decay time 90% to 10%, AC-dependent Ca2+ response / time of peak, AC-dependent Ca2+ response / time to rise 10% to 90%, AC-dependent Ca2+ response: saturating response parameters; for normalized peak magnitude, mOR-EG/AC response: normalized to eugenol
[4] = source not stated; cited from earlier work
[5] = molecular target: T1, mouse eugenol OR (mOR-EG); experiment: mOR-EG/PLC Ca2+ imaging: mOR-EG + Gα15 in HEK293T cells; assay type: cell-based; conditions: for decay time 90% to 10%, PLC-dependent Ca2+ response / time of peak, PLC-dependent Ca2+ response / time to rise 10% to 90%, PLC-dependent Ca2+ response: saturating response parameters
[6] = system: HEK293T cells; experiment: control HEK293T cells lacking components of the read-out; assay type: cell-based; conditions: eugenol 0.5-2mM; forskolin 20μM; n>500
[7] = system: adenylate cyclase; experiment: forskolin-induced Ca2+ influx in mOR-EG/Gαs
[8] = molecular target: T1, mouse eugenol OR (mOR-EG); assay type: cell-based; conditions: up to 1 mM
[9] = system: CNGC-camp; experiment: stimulation of endogenous purinergic Gαq pathway, CNGC-camp read-out; assay type: cell-based, rat; conditions: 100μM, saturating

Molecule	functional bias between PLC and AC pathways (in words) [1]	solubility [2]	decay time 90% to 10%, AC-dependent Ca2+ response [3]	time of peak, AC-dependent Ca2+ response [3]	time to rise 10% to 90%, AC-dependent Ca2+ response [3]	logP [4]	decay time 90% to 10%, PLC-dependent Ca2+ response [5]	time of peak, PLC-dependent Ca2+ response [5]	time to rise 10% to 90%, PLC-dependent Ca2+ response [5]	AC-/PLC- mediated Ca2+ response (result in words) [1]	also measured
C=CCc1ccc(OC(C)=O)c(OC)c1 [acetyl eugenol]	activated both pathways with similar EC50 values	1.4 mM (≈ 289 µg/mL)	125.5 ± 5.1 s	90.8 ± 3.4 s	27.6 ± 1.7 s	2.7	44 ± 1 s	19.6 ± 0.9 s	7.7 ± 0.4 s		EC50 [3]: 373 ± 49 µM; EC50 [5]: 348 µM
CC(C)(C)c1ccc(O)cc1 [4-tert-butylphenol]										failed to activate any response; also recorded: no effects	
CCOc1cc(C=O)ccc1O [ethyl vanillin]	activated both pathways with similar EC50 values	11 mM (≈ 1830 µg/mL)	115.7 ± 10.8 s	91.6 ± 5.8 s	36.9 ± 3.3 s	1.7	52.3 ± 4.8 s	22.6 ± 1.5 s	9.5 ± 0.8 s		EC50 [3]: 2170 ± 131 µM; EC50 [5]: 1490 µM
CC(=O)CCc1ccc(O)cc1 [raspberryketone, raspberry ketone]										no effects	AC-/PLC- mediated Ca2+ response (result in words) ([1]; listed as raspberry ketone): failed to activate any response
C=C[C@@]1(C)CC(=O)[C@]2(O)[C@@]3(C)[C@@H](O)CCC(C)(C)[C@@H]3[C@H](O)[C@H](OC(C)=O)[C@@]2(C)O1 [forskolin]											Ca2+ response in cells expressing mOR-EG and Gαolf without CNGC-camp [6]: did not generate noticeable Ca^2+ responses; Trise of Ca2+ influx on re-addition of 2 mM Ca2+ ([7]; 10μM forskolin applied in 0-Ca2+, Ca2+ added 60 s after stimulation (Fig.3F)): 24.3 ± 3.1 s; effect on Ca2+ concentration ([7]; 10 μM, 5 sec pulse, mOR-EG/Gαs(olf) cells): increased the Ca^2+ concentration; Trise of response to forskolin ([7]; 10μM, extracellular Ca2+ present (Fig.3E)): 76.7 ± 5.7 s
C=CCc1ccc(OC)c(OC)c1 [methyl eugenol]	activated both pathways with similar EC50 values	4.3 mM (≈ 766 µg/mL)	101.2 ± 6 s	92 ± 3 s	41.6 ± 2.2 s	2.7	39.8 ± 2.3 s	19.8 ± 1.2 s	5.4 ± 0.6 s		EC50 [3]: 177 ± 11 µM; EC50 [5]: 165 µM
isoeugenol	biased activation of the PLC pathway		104 ± 4.8 s	95.3 ± 4.8 s	36.7 ± 2.7 s		54.5 ± 2.6 s	37.1 ± 3.5 s	14.8 ± 1.6 s		slow Gαs(olf)-dependent response in dual-response cells [8]: failed to evoke noticeable Gαs(olf)-dependent Ca^2+ signal; slow Gαs(olf)-dependent response in dual-response cells ([8]; listed as Isoeugenol): not able to evoke a slow Gαs(olf)-dependent response; potency in mOR-EG/PLC signaling in comparison to mOR-EG/AC signaling [1]: ~ 8 fold; normalized peak magnitude, mOR-EG/AC response [3]: 0.14±0.11; normalized peak magnitude, mOR-EG/PLC response ([5]; normalized to eugenol): 0.38±0.03
COC(=O)c1c(C)cc(O)c(C)c1O [mousse cristal]	biased activation of the PLC pathway; also recorded: strongly activating both pathways yet with a different apparent affinity		117.6 ± 5.3 s	107.3 ± 2.4 s	32.6 ± 1.6 s	10/2.8	74 ± 4 s	30.7 ± 1.4 s	14.1 ± 0.8 s and 14 ± 1 s	full agonist for mOR-EG	potency in mOR-EG/PLC signaling in comparison to mOR-EG/AC signaling [1]: more than 2 fold; faster Trise of mOR-EG/AC response than eugenol [3]: 30%; normalized peak magnitude, mOR-EG/AC response [3]: 1.12±0.13
CCC(C)(C)C1CCC(=O)CC1 [orivone]	activated both pathways with similar EC50 values		101 ± 5 s	94.9 ± 5.3 s	36.4 ± 2.6 s		47.6 ± 4.1 s	29.8 ± 2.3 s	8 ± 1 s		
C/C=C/c1ccc2c(c1)OCO2 [isosafrole]		0.6 mM (≈ 97.3 µg/mL)				3.9				failed to activate any response; also recorded: non agonist, antagonist (*)	
C=C(C)[C@@H]1CCC2=CC(=O)C[C@@H](C)[C@]2(C)C1 [nootkatone]		0.24 mM (≈ 52.4 µg/mL)				3.8				failed to activate any response; also recorded: no effects	
COc1cc(C=O)ccc1O [vanillin]	activated both pathways with similar EC50 values	28 mM (≈ 4260 µg/mL)	101.7 ± 2.6 s	85.3 ± 2.9 s	31.4 ± 1.3 s		48 ± 2.9 s	18.6 ± 0.9 s	8.3 ± 0.5 s		
CC(C)c1ccc(O)cc1 [4-isopropylphenol]		15 mM (≈ 2040 µg/mL)				3				failed to activate any response; also recorded: no effects	
Nc1ncnc2c1ncn2[C@@H]1O[C@H](COP(=O)(O)OP(=O)(O)OP(=O)(O)O)[C@@H](O)[C@H]1O [ATP]											activation of CNGC-camp [9]: did not induce appreciable activation of CNGC-camp
